{
  "source": "patent US6753323B2",
  "about": "“Topical administration of amifostine and related compounds” (MedImmune Oncology, Inc., priority 1998, dated 2004)",
  "key": {"[1]": {"test": "Radiation-induced mucositis in mice (inferior lip mucosa model, Parkins score)", "format": "in vivo, C57BL/6 mice", "conditions": "C57BL/6, mouse, in vivo; IP, given before each fraction of radiation, mice; read-out: maximum tolerated dose", "method": "(§1) The experimental murine model was developed by Parkins et al., Radiother. […] C57BL/6 mice 8-10 weeks old were used and fed with semi-liquid food. Unanesthetized mice were maintained in supine position and irradiated exclusively on the tip of the mouth. […] J. Radiat. Oncol. Biol. Phys., 8, 145-148 (1982). The irradiation was performed with an RT 250 Phillips apparatus, delivering 1.98 Gy/min (200 kV, 20 mA, filter of 0.2 mm Cu). During irradiation, a constant normobaric air renewal was maintained.\n(§2) For the systemic applications, amifostine was dissolved in a […] solution 5 minutes before systemic IP injection of 200 to 400 mg/kg, which was administered 30 minutes before irradiation. A placebo solution of […] was used for a control group. For the topical applications, 50 mg of amifostine was dissolved in 1 mL of a solution containing 1% stearate, 5% H2O, and ammonia to adjust the pH of the solution to 8.8. The topical application was administered to the lip mucosa of the mice for a period of 30 minutes before each radiation session, and was maintained throughout the duration of irradiation. A single dose of 16.5 Gy, and a fractionated schedule delivering 24 Gy in 4 fractions over 2 days (with 8 hour intervals between fractions) were administered.\n(§3) Four groups of eight mice were scored and weighed each day. Any mice having lost 30% or more of the initial weight was sacrificed. The effect of mucositis and weight loss were compared at the maximum of the acute reactions (day 11) among the different groups receiving or not receiving amifostine treatments, using the Mann and Whitney test."}, "[2]": {"test_system": "inferior lip mucosa of the mice", "test": "Radiation-induced mucositis in mice (inferior lip mucosa model, Parkins score)", "format": "in vivo, C57BL/6 mice", "conditions": "for maximum grade of mucosal reactions: Parkins score", "method": "as §1, §2, §3"}, "Candida albicans [3]": {"test_system": "Candida albicans", "test": "Microbial growth inhibition, refrigerated storage (2°-8° C.)", "format": "cell-based", "conditions": "refrigerated 2°-8° C.; for % Change: vs theoretical 0 hr count", "method": "(§4) Amifostine was studied for its ability to inhibit microbial growth. Clear 10 cc vials, stoppers and seals were sterilized for use in the study. Two separate procedures were performed: a refrigerated storage study (2° to 8° C.) and a room temperature storage study (20° to 25° C.). For each test portion, positive controls were prepared for each organism by placing 9.5 mL sterile 0.9% sodium chloride into separate sterile vials and inoculating each with 10^3 to 10^4 of one of the test organisms. In addition, amifostine test specimens were prepared for each test portion by reconstituting six Ethyol® vials with 0.9% sodium chloride, the contents of each of these vials were then transferred to clear sterile vials to allow for easier visual examination. One vial was designated as a negative control, and each of the remaining five vials was inoculated with 10^3 to 10^4 of one of the test organisms. All vials were protected from light throughout the test to simulate the amber Ethyol® vial.\n(§5) Positive controls, product test specimens, and a negative control were prepared. At this time, population counts were performed on each positive control. Population counts were also performed on positive controls and product test specimens at 24, 48 and 72 hours. These samples were diluted with sterile water and plated in duplicate with a target of 30 to 300 colonies per plate. Candida albicans, Escherichia coli, Pseudomonas aeruginosa, and Staphylococcus aureus were overpoured with TSA agar and incubated at 30-35° C. for 48 hours. Aspergillus niger was overpoured with Sabouraud agar and incubated at 20-25° C. for 48 hours."}, "Escherichia coli [4]": {"test_system": "Escherichia coli", "test": "Microbial growth inhibition, refrigerated storage (2°-8° C.)", "format": "cell-based", "conditions": "E. coli, refrigerated 2°-8° C.; for % Change: vs theoretical 0 hr count", "method": "as §4, §5"}, "Aspergillus niger": {"test_system": "Aspergillus niger", "test": "Microbial growth inhibition, room temperature storage (20°-25° C.)", "format": "cell-based", "conditions": "A. niger, room temperature 20°-25° C.; for % Change: vs theoretical 0 hr count", "method": "as §4\nas §5, with “24 and” for “24,”, “48” for “48 and 72”"}, "Candida albicans [5]": {"test_system": "Candida albicans", "test": "Microbial growth inhibition, room temperature storage (20°-25° C.)", "format": "cell-based", "conditions": "room temperature 20°-25° C.; for % Change: vs theoretical 0 hr count", "method": "as §4\nas §5, with “24 and” for “24,”, “48” for “48 and 72”"}, "Escherichia coli [6]": {"test_system": "Escherichia coli", "test": "Microbial growth inhibition, room temperature storage (20°-25° C.)", "format": "cell-based", "conditions": "E. coli, room temperature 20°-25° C.; for % Change: vs theoretical 0 hr count", "method": "as §4\nas §5, with “24 and” for “24,”, “48” for “48 and 72”"}, "Pseudomonas aeruginosa": {"test_system": "Pseudomonas aeruginosa", "test": "Microbial growth inhibition, room temperature storage (20°-25° C.)", "format": "cell-based", "conditions": "P. aeruginosa, room temperature 20°-25° C.; for % Change: vs theoretical 0 hr count", "method": "as §4\nas §5, with “24 and” for “24,”, “48” for “48 and 72”"}, "Staphylococcus aureus": {"test_system": "Staphylococcus aureus", "test": "Microbial growth inhibition, room temperature storage (20°-25° C.)", "format": "cell-based", "conditions": "S. aureus, room temperature 20°-25° C.; for % Change: vs theoretical 0 hr count", "method": "as §4\nas §5, with “24 and” for “24,”, “48” for “48 and 72”"}, "[7]": {"test_system": "five compendial organisms", "test": "Microbial growth inhibition, room temperature storage, summary over all test organisms", "format": "cell-based", "method": "as §4\nPositive controls, product test specimens, and a negative control were prepared. At this time, population counts were performed on each positive control. Population counts were also performed on positive controls and product test specimens at 24 and 48 hours. These samples were diluted with sterile water and plated in duplicate with a target of 30 to 300 colonies per plate. […]"}, "oral mucosa of mice": {"test_system": "oral mucosa of mice", "conditions": "topical in carbowax to oral mucosa; cited from earlier work"}, "mouse skin": {"test_system": "mouse skin", "conditions": "cited from earlier work"}, "murine skin": {"test_system": "murine skin", "conditions": "gauze with 10% solution in saline on murine skin 15 to 60 minutes, then 137Cs irradiation; cited from earlier work"}, "[8]": {"test_system": "intestinal mucosa in patients", "conditions": "enema in Proctofoam, 100 to 450 mg, 45 minutes prior to pelvic radiation; cited from earlier work"}},
  "data": [
    {"smiles": "NCCCNCCSP(=O)(O)O", "note": "[amifostine, S-2-(3-aminopropylamino)ethyl dihydrogen phosphorothioate]", "values": [
      {"measurement": "MTD at 2 days", "setting": "[1]", "value": 400, "unit": "mg/kg"},
      {"measurement": "maximum grade of mucosal reactions", "setting": "[2]; 200 mg/kg IP 30 min before irradiation, 24 Gy in 4 fractions over 2 days, day 11, ± standard error", "value": "3.5±0.2"},
      {"measurement": "maximum grade of mucosal reactions", "setting": "[2]; 400 mg/kg IP 30 min before irradiation, 24 Gy in 4 fractions over 2 days, day 11, ± standard error", "value": "2.5±0.4"},
      {"measurement": "grades of mucosal reactions compared to the control group", "setting": "[2]; single dose of 16.5 Gy, IP and topical amifostine groups", "value": "significantly lower"},
      {"measurement": "maximum grade of mucositis", "setting": "[2]; topical 50 mg/mL solution pH 8.8 on lip mucosa 30 min before and during irradiation, 24 Gy in 4 fractions over 2 days, day 11, ± standard error", "value": "3.9±0.2"},
      {"measurement": "CFU/mL in Amifostine", "setting": "Candida albicans [3]; 24 hr", "value": "3.99 × 10^3 CFU/mL"},
      {"measurement": "% Change", "setting": "Candida albicans [3]; 24 hr", "value": "−63.0", "unit": "%"},
      {"measurement": "CFU/mL in Amifostine", "setting": "Candida albicans [3]; 48 hr", "value": "2.09 × 10^3 CFU/mL"},
      {"measurement": "% Change", "setting": "Candida albicans [3]; 48 hr", "value": "−80.6", "unit": "%"},
      {"measurement": "CFU/mL in Amifostine", "setting": "Candida albicans [3]; 72 hr", "value": "7.13 × 10^3 CFU/mL"},
      {"measurement": "% Change", "setting": "Candida albicans [3]; 72 hr", "value": "−34.0", "unit": "%"},
      {"measurement": "CFU/mL in Amifostine", "setting": "Escherichia coli [4]; 24 hr", "value": "2.85 × 10^2 CFU/mL"},
      {"measurement": "% Change", "setting": "Escherichia coli [4]; 24 hr", "value": "−70.0", "unit": "%"},
      {"measurement": "CFU/mL in Amifostine", "setting": "Escherichia coli [4]; 48 hr", "value": 0, "unit": "CFU/mL"},
      {"measurement": "% Change", "setting": "Escherichia coli [4]; 48 hr", "value": "−100", "unit": "%"},
      {"measurement": "CFU/mL in Amifostine", "setting": "Escherichia coli [4]; 72 hr", "value": 0, "unit": "CFU/mL"},
      {"measurement": "% Change", "setting": "Escherichia coli [4]; 72 hr", "value": "−100", "unit": "%"},
      {"measurement": "CFU/mL in Amifostine", "setting": "Aspergillus niger; 24 hr", "value": "1.56 × 10^7 CFU/mL"},
      {"measurement": "% Change", "setting": "Aspergillus niger; 24 hr", "value": "+58.3%"},
      {"measurement": "CFU/mL in Amifostine", "setting": "Aspergillus niger; 48 hr", "value": "3.52 × 10^6 CFU/mL"},
      {"measurement": "% Change", "setting": "Aspergillus niger; 48 hr", "value": "−61.3", "unit": "%"},
      {"measurement": "CFU/mL in Amifostine", "setting": "Candida albicans [5]; 24 hr", "value": "1.43 × 10^4 CFU/mL"},
      {"measurement": "% Change", "setting": "Candida albicans [5]; 24 hr", "value": "−13.8", "unit": "%"},
      {"measurement": "CFU/mL in Amifostine", "setting": "Candida albicans [5]; 48 hr", "value": "1.00 × 10^4 CFU/mL"},
      {"measurement": "% Change", "setting": "Candida albicans [5]; 48 hr", "value": "−39.8", "unit": "%"},
      {"measurement": "CFU/mL in Amifostine", "setting": "Escherichia coli [6]; 24 hr", "value": "2.28 × 10^3 CFU/mL"},
      {"measurement": "% Change", "setting": "Escherichia coli [6]; 24 hr", "value": "−91.8", "unit": "%"},
      {"measurement": "CFU/mL in Amifostine", "setting": "Escherichia coli [6]; 48 hr", "value": "8.55 × 10^2 CFU/mL"},
      {"measurement": "% Change", "setting": "Escherichia coli [6]; 48 hr", "value": "−96.9", "unit": "%"},
      {"measurement": "CFU/mL in Amifostine", "setting": "Pseudomonas aeruginosa; 24 hr", "value": "5.22 × 10^2 CFU/mL"},
      {"measurement": "% Change", "setting": "Pseudomonas aeruginosa; 24 hr", "value": "−80.0", "unit": "%"},
      {"measurement": "CFU/mL in Amifostine", "setting": "Pseudomonas aeruginosa; 48 hr", "value": 0, "unit": "CFU/mL"},
      {"measurement": "% Change", "setting": "Pseudomonas aeruginosa; 48 hr", "value": "−100", "unit": "%"},
      {"measurement": "CFU/mL in Amifostine", "setting": "Staphylococcus aureus; 24 hr", "value": "9.60 × 10^4 CFU/mL"},
      {"measurement": "% Change", "setting": "Staphylococcus aureus; 24 hr", "value": "−4.0", "unit": "%"},
      {"measurement": "CFU/mL in Amifostine", "setting": "Staphylococcus aureus; 48 hr", "value": "3.32 × 10^2 CFU/mL"},
      {"measurement": "% Change", "setting": "Staphylococcus aureus; 48 hr", "value": "−99.7", "unit": "%"},
      {"measurement": "concentration of viable microorganisms at 24 hours", "setting": "[7]", "value": "reduced in four of the five compendial organisms"},
      {"measurement": "toxicity at the dosages tested", "setting": "oral mucosa of mice", "value": "no toxicity observed"},
      {"measurement": "radioprotective effect, topically applied", "setting": "mouse skin; paste (aqueous sodium bicarbonate pH 7 and Unibase) on mouse skin, any dose studied", "value": "no radioprotective effect"},
      {"measurement": "radioprotective effect, systemically administered", "setting": "mouse skin; systemic administration, mice", "value": "effective in reducing the severity of radiation damage"},
      {"measurement": "radioprotective effect, topically applied", "setting": "murine skin", "value": "no significant radioprotective effects"},
      {"measurement": "rectal mucosal damage, test group vs control group", "setting": "[8]", "value": "no significant differences"}
    ]}
  ]
}
